Experimental data as given in US6541511B1, “Methyl analogs of simvastatin as novel HMG-CoA reductase inhibitors” (Ranbaxy Laboratories Limited, priority 2001, dated 2003).

Key:
[1] = target: T1, HMG-CoA reductase (Homo sapiens, UniProt P04035); settings: cited from earlier work
T1 sequence (P04035 1-888): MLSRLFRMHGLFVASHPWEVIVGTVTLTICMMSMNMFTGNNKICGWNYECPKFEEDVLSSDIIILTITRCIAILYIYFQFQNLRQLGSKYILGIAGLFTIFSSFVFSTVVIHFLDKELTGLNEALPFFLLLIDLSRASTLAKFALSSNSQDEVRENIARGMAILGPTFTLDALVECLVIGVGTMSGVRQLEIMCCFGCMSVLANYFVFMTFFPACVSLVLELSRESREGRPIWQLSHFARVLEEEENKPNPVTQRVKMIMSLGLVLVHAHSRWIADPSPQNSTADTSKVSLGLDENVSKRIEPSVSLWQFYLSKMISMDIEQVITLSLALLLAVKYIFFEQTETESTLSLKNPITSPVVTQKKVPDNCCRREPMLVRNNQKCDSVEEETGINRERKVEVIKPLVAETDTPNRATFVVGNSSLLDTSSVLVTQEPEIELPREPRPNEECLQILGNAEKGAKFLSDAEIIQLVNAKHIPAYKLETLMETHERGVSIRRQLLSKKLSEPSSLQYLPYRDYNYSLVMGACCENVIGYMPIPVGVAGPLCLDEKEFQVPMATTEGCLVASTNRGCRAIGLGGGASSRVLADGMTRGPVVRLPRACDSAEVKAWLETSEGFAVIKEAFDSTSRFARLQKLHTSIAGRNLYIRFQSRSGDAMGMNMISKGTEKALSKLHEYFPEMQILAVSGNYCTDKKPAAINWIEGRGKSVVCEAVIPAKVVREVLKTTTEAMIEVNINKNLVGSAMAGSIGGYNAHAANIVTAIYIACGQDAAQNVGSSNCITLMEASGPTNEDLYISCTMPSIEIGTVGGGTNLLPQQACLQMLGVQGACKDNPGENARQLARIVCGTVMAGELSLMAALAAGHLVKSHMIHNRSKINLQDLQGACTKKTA

[2] = target: T1, HMG-CoA reductase; assay: in vitro HMG-CoA reductase inhibitory activity; assay type: biochemical
Description: The in vivo and in vitro biological activity of the methyl analog of simvastatin isomeric compounds of structural formulae VIIc and VIIa was carried out on a HMG-CoA reductase inhibitory model. The compounds were tested at three concentrations (10^−5, 10^−7 and 10^−9 M) for the in vitro activity.

[3] = system: (14C) cholesterol synthesis from (14C) acetate; assay: in vivo inhibition of (14C) cholesterol prepared from 14C acetate in rats; settings: for cholesterol lowering activity (in words): in vivo
Description: The in vivo experiments were conducted using radiolabelled (^14C) acetate which was administered to the rats converting it into (^14C) cholesterol. This synthesis was measured by quantitating (^14C) cholesterol inhibited by HMG-CoA reductase inhibitor.

Compound: CCC(C)(C)C(=O)O[C@H]1C[C@@H](C)C=C2C=C[C@H](C)[C@H](CC[C@@H]3C[C@@H](O)CC(=O)O3)[C@H]21 [simvastatin]
- potency relative to mevinolin [1]: twice as potent as mevinolin

Compound: CCC(C)(C)C(=O)O[C@H]1C[C@@H](C)C=C2C=C[C@H](C)[C@H](CC[C@@H]3C[C@@H](O)[C@@H](C)C(=O)O3)[C@H]21 [VIIa, 6(R)-[2-[8(S)-[[2,2-Dimethylbutanoyl]oxyl]-2(S),6(R)-dimethyl-1,2,6,7,8,8a(R)-hexahydro-1(S)-napthyl]ethyl]-3(R)-methyl,4(R)-hydroxy-3,4,5,6-tetrahydro-2H-pyran-2-one]
- % HMG-CoA reductase inhibition activity ([2]; concentration 10^-5 M): 100%
- % HMG-CoA reductase inhibition activity ([2]; concentration 10^-7 M): 93%
- % HMG-CoA reductase inhibition activity ([2]; concentration 10^-9 M): 30%
- % inhibition of (14C) cholesterol prepared from 14C acetate ([3]; 1 mg/kg i.p.): 10%
- % inhibition of (14C) cholesterol prepared from 14C acetate ([3]; 1 mg/kg orally): 0%
- % inhibition of (14C) cholesterol prepared from 14C acetate ([3]; 5 mg/kg orally): 69%
- cholesterol lowering activity (in words) [3]: have cholesterol lowering activity

Compound: CCC(C)(C)C(=O)O[C@H]1C[C@@H](C)C=C2C=C[C@H](C)[C@H](CC[C@@H]3C[C@@H](O)[C@H](C)C(=O)O3)[C@H]21 [VIIc, 6(R)-[2-[8(S)-[[2,2-Dimethylbutanoyl]oxyl]-2(S),6(R)-dimethyl-1,2,6,7,8,8a(R)-hexahydro-1(S)-napthyl]ethyl]-3(S)-methyl,4(R)-hydroxy-3,4,5,6-tetrahydro-2H-pyran-2-one]
- % HMG-CoA reductase inhibition activity ([2]; concentration 10^-5 M): 99%
- % HMG-CoA reductase inhibition activity ([2]; concentration 10^-7 M): 71%
- % HMG-CoA reductase inhibition activity ([2]; concentration 10^-9 M): 8%
- HMG-CoA reductase inhibitory activity (in words) ([2]; tested at 10^-5, 10^-7 and 10^-9 M): significant HMG-CoA reductase inhibitory activity
- % inhibition of (14C) cholesterol prepared from 14C acetate ([3]; 1 mg/kg i.p.): 8%
- % inhibition of (14C) cholesterol prepared from 14C acetate ([3]; 1 mg/kg orally): 0%
- % inhibition of (14C) cholesterol prepared from 14C acetate ([3]; 5 mg/kg orally): 57%
- cholesterol lowering activity (in words) [3]: have cholesterol lowering activity
